Measurements taken from ChEMBL document CHEMBL1201862, “PubChem BioAssay data set” (2004).
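Protocol summary: plate cells (96-well), add compound at 5 concentrations, incubate 48 h, interpolate endpoints linearly. GI50 is the concentration that inhibits growth by half.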 Activity calls are given as the source filed them. No stated cut-off is given here; in the data, active = GI50 up to about 1.1 µM and inactive = higher.

Assays:
Assay in all cases: inhibition of tumour cell growth, NCI panel, 48 h
RXF 393 = tested on: RXF 393
IGROV-1 = tested on: IGROV-1
HT-29 = tested on: HT-29
M14 = tested on: M14
CAKI-1 = tested on: CAKI-1
KM12 = tested on: KM12
U-251 = tested on: U-251
SK-OV-3 = tested on: SK-OV-3
NCI-H226 = tested on: NCI-H226
SNB-75 = tested on: SNB-75
SF-268 = tested on: SF-268
SF-295 = tested on: SF-295
786-0 = tested on: 786-0
CCRF-CEM = tested on: CCRF-CEM
K562 = tested on: K562
UACC-257 = tested on: UACC-257
NCI-H23 = tested on: NCI-H23
RPMI-8226 = tested on: RPMI-8226
A549 = tested on: A549
SNB-19 = tested on: SNB-19

Measured: GI50

N#C/C(=C/C=C/c1ccco1)C(N)=O
inactive: RXF 393 > 10 µM | IGROV-1 > 10 µM | HT-29 > 10 µM | M14 > 10 µM | CAKI-1 > 10 µM | KM12 > 10 µM | U-251 > 10 µM | SK-OV-3 > 10 µM | NCI-H226 > 10 µM | SNB-75 > 10 µM | SF-268 > 10 µM | SF-295 > 10 µM | 786-0 > 10 µM

Nc1nc(Cl)cc(NC2(CO)CCC2)n1
inactive: RXF 393 > 100 µM | CCRF-CEM > 100 µM | K562 > 100 µM | UACC-257 > 100 µM | NCI-H23 > 100 µM | IGROV-1 > 100 µM | HT-29 > 100 µM | CAKI-1 89.5 µM | KM12 > 100 µM | U-251 > 100 µM | RPMI-8226 > 100 µM | A549 > 100 µM | NCI-H226 > 100 µM | SNB-75 > 100 µM | SF-268 > 100 µM | SF-295 > 100 µM | 786-0 > 100 µM

CN1c2ccccc2N(C)C23N(C)c4ccccc4N(C)C12N(C)c1ccccc1N3C (centres undefined)
inactive: RXF 393 > 100 µM | CCRF-CEM > 100 µM | K562 > 100 µM | UACC-257 > 100 µM | NCI-H23 > 100 µM | IGROV-1 > 100 µM | HT-29 > 100 µM | M14 > 100 µM | CAKI-1 > 100 µM | SNB-19 > 100 µM | KM12 > 100 µM | U-251 > 100 µM | A549 > 100 µM | NCI-H226 > 100 µM | SNB-75 35.6 µM | SF-268 > 100 µM | SF-295 > 100 µM | 786-0 > 100 µM

Cn1c(=N)n[n+]([O-])c2ccccc21
inactive: RXF 393 19.6 µM | CCRF-CEM 4.24 µM | K562 1.36 µM | UACC-257 1.94 µM | NCI-H23 2.16 µM | IGROV-1 3.46 µM | HT-29 3.1 µM | M14 1.95 µM | CAKI-1 2.31 µM | KM12 19 µM | U-251 7.69 µM | SK-OV-3 22.9 µM | A549 11.7 µM | NCI-H226 13.4 µM | SNB-75 3.78 µM | SF-295 3.54 µM | 786-0 8.2 µM

O=C1NC2CCC(C2)C1c1ccccc1 (centres undefined)
inactive: RXF 393 > 100 µM | CCRF-CEM > 100 µM | K562 > 100 µM | NCI-H23 > 100 µM | IGROV-1 > 100 µM | HT-29 > 100 µM | M14 > 100 µM | SNB-19 > 100 µM | KM12 > 100 µM | U-251 > 100 µM | SK-OV-3 > 100 µM | RPMI-8226 > 100 µM | A549 > 100 µM | NCI-H226 > 100 µM | SNB-75 > 100 µM | SF-268 > 100 µM | SF-295 > 100 µM | 786-0 > 100 µM

CCC12CCC(O)C1N(C)CCC2Sc1ccccc1 (centres undefined)
inactive: RXF 393 > 100 µM | CCRF-CEM 77.4 µM | K562 37.4 µM | UACC-257 61.2 µM | NCI-H23 > 100 µM | IGROV-1 > 100 µM | HT-29 34.8 µM | M14 > 100 µM | SNB-19 > 100 µM | KM12 52.8 µM | U-251 78.2 µM | SK-OV-3 > 100 µM | RPMI-8226 59.3 µM | A549 > 100 µM | NCI-H226 23.4 µM | SNB-75 24.8 µM | SF-268 75.5 µM | SF-295 76.2 µM | 786-0 > 100 µM

CNc1ccc2ncccc2c1[N+](=O)[O-]
inactive: RXF 393 > 100 µM | CCRF-CEM > 100 µM | K562 > 100 µM | UACC-257 > 100 µM | NCI-H23 > 100 µM | IGROV-1 > 100 µM | HT-29 > 100 µM | M14 > 100 µM | CAKI-1 > 100 µM | SNB-19 > 100 µM | KM12 > 100 µM | RPMI-8226 > 100 µM | A549 > 100 µM | NCI-H226 > 100 µM | SNB-75 > 100 µM | SF-268 > 100 µM | SF-295 > 100 µM | 786-0 > 100 µM

O=C1c2ccccc2C(=O)c2nc3c(O)cccc3cc21
inactive: RXF 393 > 100 µM | K562 5.83 µM | UACC-257 10.3 µM | NCI-H23 > 100 µM | IGROV-1 57.8 µM | HT-29 21 µM | M14 6.34 µM | CAKI-1 93.1 µM | SNB-19 14.7 µM | KM12 47.6 µM | U-251 20.8 µM | RPMI-8226 6.47 µM | A549 17.8 µM | NCI-H226 74.5 µM | SNB-75 68.1 µM | SF-268 7.96 µM | SF-295 12.7 µM | 786-0 6.38 µM

CCN(CC)CCOC(NC(C)=O)(c1ccccc1)c1ccccc1
inactive: RXF 393 > 100 µM | CCRF-CEM > 100 µM | UACC-257 > 100 µM | NCI-H23 > 100 µM | IGROV-1 > 100 µM | HT-29 > 100 µM | M14 > 100 µM | SNB-19 > 100 µM | KM12 > 100 µM | U-251 > 100 µM | SK-OV-3 > 100 µM | RPMI-8226 > 100 µM | A549 > 100 µM | NCI-H226 > 100 µM | SNB-75 > 100 µM | SF-268 > 100 µM | SF-295 > 100 µM | 786-0 > 100 µM

CC1=NOC(=O)/C1=C/c1ccc([N+](=O)[O-])cc1
inactive: RXF 393 > 100 µM | CCRF-CEM > 100 µM | K562 > 100 µM | UACC-257 > 100 µM | NCI-H23 > 100 µM | IGROV-1 > 100 µM | HT-29 > 100 µM | M14 > 100 µM | CAKI-1 > 100 µM | SNB-19 > 100 µM | KM12 > 100 µM | U-251 > 100 µM | SK-OV-3 > 100 µM | A549 > 100 µM | NCI-H226 > 100 µM | SNB-75 > 100 µM | SF-268 > 100 µM | SF-295 > 100 µM | 786-0 > 100 µM

CC(=O)OC1CC[C@@]2(C)C(=CC[C@@H]3[C@@H]2CC[C@]2(C)C(OC(C)=O)[C@H](n4ccnc4)C[C@@H]32)C1 (some centres undefined)
inactive: RXF 393 30.2 µM | CCRF-CEM 11.7 µM | K562 24.6 µM | UACC-257 17.3 µM | NCI-H23 37.5 µM | IGROV-1 34.4 µM | HT-29 10.7 µM | M14 17.2 µM | CAKI-1 49.1 µM | SNB-19 62.8 µM | KM12 16.7 µM | U-251 37.8 µM | RPMI-8226 17.3 µM | A549 35.3 µM | NCI-H226 36.6 µM | SNB-75 54.7 µM | SF-268 41.5 µM | SF-295 31.7 µM | 786-0 30.4 µM
